Test results from the supplement of paper PMC10307832.

Compound: CC(C)C[C@@H](C(=O)N[C@H](C(=O)OC1CCCC1)c1ccccc1)[C@H](O)C(=O)NO [Tosedostat] + Nc1ncn([C@H]2C[C@H](O)[C@@H](CO)O2)c(=O)n1 [Decitabine] (partner 2 µM)
Assay: relative viability (nuclei count vs DMSO), 5 days (fraction); higher = more cells survive
Conditions: first compound 0.02 µM
In short: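 The day after seeding in 1536-well plates, lung cancer cell lines were treated by pin tool with a single drug, or with a fixed anchor-drug dose together with five library-drug doses (not always all listed) in √10 steps. After 5 days, a combined fix-and-stain solution (final 0.05% Triton X-100, 1% formaldehyde, 1 ug/ml Hoechst) was added. Nuclei counted on 4× images gave relative viability as treated counts over vehicle counts, reported as the median of duplicate plates.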

In order of rising relative viability:
1. EKVX  0.37
2. NCI-H1993  0.487
3. HCC-15  0.675
4. NCI-H1666  0.776
5. LC-2-ad  0.777

Same assay, conditions: first compound 0.06325 µM

In order of falling relative viability:
1. HCC-44  0.919
2. 201T  0.894
3. LC-2-ad  0.776
4. BEN  0.761
5. NCI-H1666  0.744
6. HCC-78  0.706
7. NCI-H1993  0.673
8. NCI-H322M  0.652
9. HCC-15  0.649
10. NCI-H1651  0.63
11. RERF-LC-KJ  0.622
12. A-427  0.594
13. HARA  0.583
14. NCI-H2126  0.583
15. NCI-H1437  0.569
16. NCI-H2085  0.548
17. NCI-H661  0.547
18. NCI-H3122  0.524
19. NCI-H1734  0.509
20. NCI-H520  0.439
21. NCI-H1975  0.425
22. LXF-289  0.392
23. NCI-H2009  0.377
24. EPLC-272H  0.37
25. NCI-H647  0.367
26. EKVX  0.34
27. NCI-H650  0.339
28. HCC-827  0.331
29. NCI-H1915  0.283
30. NCI-H441  0.253
31. LCLC-97TM1  0.234
32. HOP-62  0.203
33. NCI-H2023  0.202
34. PC-14  0.177

Same assay, conditions: first compound 0.2 µM

In order of falling relative viability:
1. HCC-44  0.943
2. 201T  0.879
3. LC-2-ad  0.83
4. HCC-78  0.732
5. NCI-H1666  0.696
6. BEN  0.676
7. A-427  0.629
8. RERF-LC-KJ  0.615
9. NCI-H2126  0.591
10. HCC-15  0.591
11. NCI-H322M  0.587
12. NCI-H1437  0.58
13. NCI-H1993  0.576
14. NCI-H661  0.535
15. NCI-H1651  0.501
16. NCI-H2085  0.495
17. NCI-H1734  0.461
18. NCI-H3122  0.447
19. HARA  0.427
20. NCI-H520  0.414
21. NCI-H2009  0.404
22. NCI-H1975  0.4
23. LXF-289  0.365
24. EPLC-272H  0.363
25. NCI-H650  0.316
26. EKVX  0.292
27. HCC-827  0.289
28. NCI-H647  0.286
29. NCI-H1915  0.26
30. HOP-62  0.258
31. NCI-H441  0.239
32. NCI-H2023  0.223
33. LCLC-97TM1  0.212
34. PC-14  0.146

Same assay, conditions: first compound 0.6325 µM

In order of rising relative viability:
1. HOP-62  0.159
2. LXF-289  0.387
3. NCI-H647  0.404
4. HARA  0.442
5. BEN  0.734
6. HCC-78  0.75
7. HCC-44  0.865
